Consider one substance from patent US20250290076A1, “EPICARDIAL CELL REGENERATION PROMOTER AND METHOD FOR PROMOTING EPICARDIAL CELL REGENERATION” (KYOTO UNIVERSITY, priority 2022, published 2025).

Type in all cases: cell-based
In data set [1] the test system is human iPS cell-derived fetal epicardium. The experiment in a line: Wound-healing assay. The following applies: from 20 hours to 24 hours after scratching; vs negative control siRNA. As to the method:
(§1) In the siRNA transfection assay, the human iPS cell-derived fetal epicardium was seeded at a density of 0.8×10^6 cells per 10 cm dish, and transfection was carried out using RNAiMax (Invitrogen). Twenty-four hours after the transfection, the culture medium was replaced with a fresh medium. A small interfering RNA (siRNA) (sense strand: CAAGGAGUCAGACAUUUUAtt (SEQ ID NO: 1), an anti-sense strand: UAAAAUGUCUGACUCCUUGtt (SEQ ID NO: 2)) targeting CDKN1A, and a negative control siRNA No.1 (4390843) derived from Ambion Silencer Select, were used in accordance with the manufacturer's instructions.
The cells were seeded on a six-well plate and cultured until 100% confluent. Subsequently, the cell monolayer was scratched with a pipette tip, to create a physical wound manually. The scratched area was imaged 0, 12, 16, 20 and 24 hours after scratching. The area without cells at the beginning, and the remaining area after 12, 16, 20 and 24 hours, were quantified by Image-J. Thereafter, the percentage of the scratched area into which migrating cells reassembled (the percentage of the wound-closed area) was calculated, with respect to the scratched area.
Further, the wound-healing assay was performed for the human iPS cell-derived fetal epicardium which had been subjected to the transfection assay using each siRNA. […]

In a further data set the test system is CDKN1A. Kind of data set: siRNA transfection assay, relative CDKN1A mRNA expression by quantitative RT-PCR. The settings on record: human iPS cell-derived fetal epicardium; vs negative control siRNA; normalized with GAPDH. The protocol: as §1
RNAs were extracted using QIAzol lysis reagent (manufactured by QIAGEN N.V.), and cDNA was synthesized from the total RNA using ReverTra Ace qPCR RT Master Mix with gDNA Remover (manufactured by TOYOBO Co., Ltd.). Subsequently, quantitative RT-PCR was performed using Thunderbird SYBR qPCR Mix (manufactured by TOYOBO Co., Ltd.)), in One Step Real-Time PCR System (Applied Biosystems). The gene expression results were quantified by the AACt method, and normalized with GAPDH.
The primers used are as follows. […]
The human iPS cell-derived fetal epicardium was subjected to siRNA transfection assay, using a siRNA (siCDKN1A) targeting CDKN1A or a negative control siRNA (control), and the relative mRNA expression levels of CDKN1A were measured by quantitative RT-PCR.

The subject of data set [2] is human iPS cell-derived fetal epicardium. The experiment in a line: Cell proliferation curve assay. The settings on record: cell proliferation curves for 7 days after siRNA transfection; vs negative control siRNA. The protocol:
as §1
The cell proliferation was evaluated by the time-course curve of the proliferation of the cells on a six-well plate. The cells were seeded at a density of 4 ×10^4 cells per well, and the total number of cells was counted using trypan blue for 8 days at intervals of 24 hours. The cell proliferation curves were generated by plotting the number of cells against time. After seeding, the cells were fixed with 4% paraformaldehyde (PFA), and stained with crystal violet on the days the cells were counted. The values were represented as the cell proliferation rate of the cells proliferated in the presence of 10% FBS. “0%” refers to the number of cells on day 0. […]

Another data set has as its system human epicardial cells. The experiment in a line: Colony formation assay. The following applies: colony formation for 14 days after siRNA transfection; vs negative control siRNA. As to the method:
as §1
[…] Thereafter, the colony was fixed with 4% PFA, stained with crystal violet, and counted by Image-J.
The colony formation assay was carried out in the same manner, in order to measure the viability of the human epicardial cells.

In data set [3] the test system is human iPS cell-derived fetal epicardium. The experiment in a line: Transcriptome analysis for gene signature of cell quiescence by RNA sequencing. The following applies: compared to human iPS cell-derived fetal epicardium and adult epicardium. The protocol: as §1
The data obtained by RNA sequencing were normalized using NOISeq. The data of the adult epicardium are published for the analysis, under the GSE accession number: GSE8484085. The primary data of the RNA sequencing were processed using RStudio, for mapping and gene expression analysis. The gene expression data for searching, loading and pre-processing were processed using the Bioconductor package, NOISeq, for performing the data analysis and the differential expression analysis of the RNA sequencing data. Heatmaps for clustering differentially expressed genes (DEG) were generated, using R script.
In addition, the transcriptome analysis for detecting the gene signature of cell quiescence was carried out by RNA sequencing (FIG. 6). […]

In the case of “siCDKN1A: siRNA targeting CDKN1A; sense strand CAAGGAGUCAGACAUUUUAtt (SEQ ID NO: 1), anti-sense strand UAAAAUGUCUGACUCCUUGtt (SEQ ID NO: 2) (sense CAAGGAGUCAGACAUUUUATT; antisense UAAAAUGUCUGACUCCUUGTT; chemistry not given here)”, the “wound healing capacity (percentage of the wound-closed area)” value in data set [1] is given as “significant increase”. Further, the “expression level of CDKN1A at the mRNA level as compared to that in the control” value in the data set with CDKN1A is listed as at most 50%. Further, in data set [2], the “proliferative capacity of the human epicardial cells” value is “significant increase”. For the same substance, the “viability of the human epicardial cells (colony formation)” value with human epicardial cells was “significant increase”. Besides, in data set [3], the “cell quiescence gene signature” value is recorded as “more released from quiescence”.
